Source: patent publication US20120252792A1, “METHODS AND COMPOSITIONS FOR MODULATING RHO-MEDIATED GENE TRANSCRIPTION” (THE REGENTS OF THE UNIVERSITY OF MICHIGAN, priority 2009, published 2012)

Legend:
Type in all cases: cell-based, human
[1] = system: Rho/MKL1 pathway; experiment: SRE.L-firefly luciferase reporter (dual luciferase assay), Gα12QL-transfected PC-3 cells; details: for inhibition at 10 µM: read-out: % inh SRE.L (10 μM); for inhibition at 100 µM: read-out: % inh SRE.L (100 μM)
Description: (§1) Dual Luciferase Assay: Seed PC-3 prostate cancer cells (40,000 cells/well) were grown in 96-well plates in 10% FBS containing DMEM medium. Cells were transiently transfected with the Gα12QL activator of the Rho/MKL1 pathway, along with the SRE.L-firefly luciferase reporter construct for 6 hours. Additionally, cells were co-transfected with the TK-Renilla luciferase reporter as an indicator of non-specific compound effects. Various concentrations of selected compounds were added to the 96-well plates. Plates were incubated for 19 hours at 37° C. and 5% CO2 in 0.5% FBS containing DMEM medium. Cells were lysed with 1X Passive Lysis Buffer (Promega). Plates were incubated for 30 minutes at room temperature. Luminescence counts were read with a Victor2 (Perkin-Elmer) plate reader.

[2] = system: PC-3 prostate cancer cells; experiment: WST1 cell viability assay; details: PC-3 cells, just before lysis; for inhibition at 10 µM / inhibition at 100 µM: Homo sapiens; for inhibition at 10 µM: PC-3, 10 μM, read-out: % inh WST-1 (10 μM); for inhibition at 100 µM: PC-3, 100 μM, read-out: % inh WST-1 (100 μM)
Description: WST1 Cell Viability Assay: One hour prior to cell lysis for the dual luciferase assay, 10 μl per well of WST1 reagent (Roche) was added to the 96-well plates. Plates were incubated for 1 hour at 37° C. and 5% CO2. Cell viability was measured by WST1 absorbance at 450 nm with a Victor2 (Perkin-Elmer) plate reader.

[3] = system: TK-Renilla luciferase reporter; experiment: TK-Renilla (pRL-TK) luciferase reporter, indicator of non-specific compound effects; details: PC-3 cells; for inhibition at 10 µM / inhibition at 100 µM: Homo sapiens, PC-3, 19 h; for inhibition at 10 µM: read-out: % inh PRL-TK (10 μM); for inhibition at 100 µM: read-out: % inh PRL-TK (100 μM)
Description: as §1

[4] = Homo sapiens, 19 h, 10 μM, DMSO alone = 0%
[5] = Homo sapiens, 19 h, 100 μM, DMSO alone = 0%

Row | IC50 ([1]; Homo sapiens, 19 h) | IC50 ([1]; 19 hrs) | SMILES | inhibition at 10 µM [1, 4] | inhibition at 10 µM [2] | inhibition at 10 µM [3] | inhibition at 100 µM [1, 5] | inhibition at 100 µM [2] | inhibition at 100 µM ([3]; 100 μM) | % inh SRE.L (10 μM) ([1]; 10 μM, 19 hrs, DMSO alone = 0%) | % inh SRE.L (100 μM) ([1]; 100 μM, 19 hrs, DMSO alone = 0%) | % inh WST-1 (100 μM) ([2]; 100 μM, 100 µM) | % inh PRL-TK (100 μM) ([3]; 100 μM, 19 hrs)
1 | 1.7 µM |  | O=C(Nc1ccc(Cl)cc1)c1cccc(NC(=O)c2cc(C(F)(F)F)cc(C(F)(F)F)c2)c1 [Compound 14, N-(3-(4-chlorophenylcarbamoyl)phenyl)-3,5-bis(trifluoromethyl)benzamide] | 79% | 38% | 0% |  |  |  |  |  |  | 
2 | 33 µM |  | O=C(CNC(=O)c1cc(C(F)(F)F)cc(C(F)(F)F)c1)Nc1ccc(Cl)cc1 [Compound 3, N-(2-(4-chlorophenylamino)-2-oxoethyl)-3,5-bis(trifluoromethyl)benzamide] | 45% | 0% | 15% | 85% | 30% | 25% |  |  |  | 
3 | 4.7 µM |  | O=C(CONC(=O)c1cc(C(F)(F)F)cc(C(F)(F)F)c1)Nc1ccc(Cl)cc1 [Compound 1, N-(2-(4-chlorophenylamino)-2-oxoethoxy)-3,5-bis(trifluoromethyl)benzamide] | 71% | 42% | 53% | 100% | 91% | 89% |  |  |  | 
4 | 8.9 µM |  | O=C(NCCCOc1ccc(Cl)cc1)c1cc(C(F)(F)F)cc(C(F)(F)F)c1 [Compound 19, N-(3-(4-chlorophenoxy)propyl)-3,5-bis(trifluoromethyl)benzamide] | 55% | 0% | 28% | 86% | 38% | 65% |  |  |  | 
5 | 9.1 µM |  | FC(F)(F)c1cc(CNCCCNc2ccc(Cl)cc2)cc(C(F)(F)F)c1 [Compound 28, N^1-(3,5-bis(trifluoromethyl)benzyl)-N^3-(4-chlorophenyl)propane-1,3-diamine] | 65% | 0% | 6% | 100% | 89% | 90% |  |  |  | 
6 | 5.1 µM |  | O=C(NCCCNc1ccc(Cl)cc1)c1cc(C(F)(F)F)cc(C(F)(F)F)c1 [Compound 15, N-(3-(4-chlorophenylamino)propyl)-3,5-bis(trifluoromethyl)benzamide] | 70% | 0% | 37% | 80% | 11% | 35% |  |  |  | 
7 | 69 µM |  | O=C(Nc1ccc(Cl)cc1)C1CCCN1C(=O)c1cc(C(F)(F)F)cc(C(F)(F)F)c1 (stereo not shown) [Compound 7, 1-(3,5-bis(trifluoromethyl)benzoyl)-N-(4-chlorophenyl)pyrrolidine-2-carboxamide] | 23% | 0% | 12% | 83% | 22% | 27% |  |  |  | 
8 | 4.1 µM |  | O=C(NCc1csc(-c2ccc(Cl)cc2)n1)c1cc(C(F)(F)F)cc(C(F)(F)F)c1 [Compound 18, N-((2-(4-chlorophenyl)thiazol-4-yl)methyl)-3,5-bis(trifluoromethyl)benzamide] | 50% | 0% | 39% | 45% | 0% | 38% |  |  |  | 
9 | 15.6 µM |  | O=C(Nc1ccc(Cl)cc1)C1CCN(C(=O)c2cc(C(F)(F)F)cc(C(F)(F)F)c2)C1 (stereo not shown) [Compound 27, 1-(3,5-bis(trifluoromethyl)benzoyl)-N-(4-chlorophenyl)pyrrolidine-3-carboxamide] | 30% | 0% | 14% | 100% | 86% | 92% |  |  |  | 
10 | 8.6 µM |  | O=C(CONC(=O)c1ccc(Cl)cc1)Nc1cc(C(F)(F)F)cc(C(F)(F)F)c1 [Compound 6, N-(2-(3,5-bis(trifluoromethyl)phenylamino)-2-oxoethoxy)-4-chlorobenzamide] | 58% | 11% | 19% | 100% | 96% | 87% |  |  |  | 
11 | 16 µM |  | O=C(Nc1ccc(Cl)cc1)C1CCN(C(=O)c2cc(C(F)(F)F)cc(C(F)(F)F)c2)CC1 [Compound 5, 1-(3,5-bis(trifluoromethyl)benzoyl)-N-(4-chlorophenyl)piperidine-4-carboxamide] | 17% | 0% | 0% | 87% | 39% | 17% |  |  |  | 
12 | 13 µM |  | O=C(NCCC(=O)N1CCc2cc(Cl)ccc21)c1cc(C(F)(F)F)cc(C(F)(F)F)c1 [Compound 29, N-(3-(5-chloroindolin-1-yl)-3-oxopropyl)-3,5-bis(trifluoromethyl)benzamide] | 15% | 0% | 0% | 40% | 0% | 1% |  |  |  | 
13 | 18 µM |  | O=C(Nc1ccccc1C(=O)Nc1ccc(Cl)cc1)c1cc(C(F)(F)F)cc(C(F)(F)F)c1 [Compound 16, N-(2-(4-chlorophenylcarbamoyl)phenyl)-3,5-bis(trifluoromethyl)benzamide] | 34% | 0% | 0% |  |  |  |  |  |  | 
14 | 25 µM | 38 µM | O=C(CCNC(=O)c1cc(C(F)(F)F)cc(C(F)(F)F)c1)Nc1ccc(Cl)cc1 [Compound 30, N-(3-(4-chlorophenylamino)-3-oxopropyl)-3,5-bis(trifluoromethyl)benzamide] | 44% | 0% | 0% | 66% | 6% | 15% | 38% | 64% | 10% | 22%
15 | 4.6 µM |  | O=C(CC1CC(c2cc(C(F)(F)F)cc(C(F)(F)F)c2)=NO1)Nc1ccc(Cl)cc1 (stereo not shown) [Compound 23, 2-(3-(3,5-bis(trifluoromethyl)phenyl)-4,5-dihydroisoxazol-5-yl)-N-(4-chlorophenyl)acetamide] | 77% | 0% | 58% | 87% | 66% | 73% |  |  |  | 
16 | 21 µM |  | O=C(CCCNC(=O)c1cc(C(F)(F)F)cc(C(F)(F)F)c1)Nc1ccc(Cl)cc1 [Compound 2, N-(4-(4-chlorophenylamino)-4-oxobutyl)-3,5-bis(trifluoromethyl)benzamide] | 37% | 0% | 5% | 79% | 12% | 42% |  |  |  | 
17 | 9.9 µM |  | O=C(CC1CCCCN1C(=O)c1cc(C(F)(F)F)cc(C(F)(F)F)c1)Nc1ccc(Cl)cc1 (stereo not shown) [Compound 26, 2-(1-(3,5-bis(trifluoromethyl)benzoyl)piperidin-2-yl)-N-(4-chlorophenyl)acetamide] | 41% | 0% | 0% | 85% | 27% | 76% |  |  |  | 
